Results reported in ChEMBL document CHEMBL1201862, “PubChem BioAssay data set” (2004).
Blank lines part the entries; values can stand above or below the compound they belong to. The source made the active and inactive calls.

Columns and labels:
[1] = target: Ras and Rab interactor 1/Tyrosine-protein kinase ABL1 (Homo sapiens, UniProt P00519+Q13671); assay type: functional;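 note: biochemical TR-FRET dose-response test measuring inhibition of binding between Rin1 and Abl proteins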
[2] = target: T1, RNA-binding protein pos-1 (Caenorhabditis elegans, UniProt G5EF15); assay: disruptors of C. elegans POS-1 RNA interaction – biochemical, fluorescence polarization, dose response (AID 1964);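 note: purified POS-1 fused to maltose binding protein made in E. coli; potency of compounds blocking POS-1 binding to fluorescent RNA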
T1 sequence (G5EF15 whole entry): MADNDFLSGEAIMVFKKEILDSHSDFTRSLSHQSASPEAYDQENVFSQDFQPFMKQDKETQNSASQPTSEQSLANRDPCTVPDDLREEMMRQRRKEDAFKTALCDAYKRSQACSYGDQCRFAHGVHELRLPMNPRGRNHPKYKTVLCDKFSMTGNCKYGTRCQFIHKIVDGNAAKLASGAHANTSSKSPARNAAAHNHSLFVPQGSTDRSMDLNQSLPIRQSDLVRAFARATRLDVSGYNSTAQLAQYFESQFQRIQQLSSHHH

[3] = target: T2, Zinc finger protein mex-5 (Caenorhabditis elegans, UniProt Q9XUB2); assay: potency of MEX-5 RNA-binding blockers – biochemical, C. elegans, fluorescence polarization, dose response (AID 1960)
T2 sequence (Q9XUB2 whole entry): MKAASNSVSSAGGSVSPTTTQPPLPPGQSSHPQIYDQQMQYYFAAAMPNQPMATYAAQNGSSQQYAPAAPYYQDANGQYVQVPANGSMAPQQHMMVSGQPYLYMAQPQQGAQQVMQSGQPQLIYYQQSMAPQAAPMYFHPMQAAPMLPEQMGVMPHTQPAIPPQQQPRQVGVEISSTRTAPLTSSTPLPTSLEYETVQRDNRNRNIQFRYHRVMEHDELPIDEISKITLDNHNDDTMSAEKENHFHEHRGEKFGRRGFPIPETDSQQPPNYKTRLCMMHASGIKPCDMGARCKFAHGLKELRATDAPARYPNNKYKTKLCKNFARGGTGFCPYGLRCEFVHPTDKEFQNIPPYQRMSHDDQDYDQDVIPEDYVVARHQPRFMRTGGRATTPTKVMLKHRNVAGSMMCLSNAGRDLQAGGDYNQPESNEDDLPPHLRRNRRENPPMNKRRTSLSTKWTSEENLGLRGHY

[4] = target: T3, Polyadenylate-binding protein 1 (Homo sapiens, UniProt P11940); assay: MLLE binding blockers, Cy5 peptide tracer – biochemical, fluorescence polarization, Cy5-PAM2 peptide, secondary, miRNA deadenylation inhibitor project, dose response (AID 602260); assay type: functional; conditions: read-out: IC50_Mean
[5] = target: T3, Polyadenylate-binding protein 1; assay: MLLE domain peptide-binding blockers, IC50 – biochemical, fluorescence polarization, FITC-PAM2 peptide, dose response (AID 602259); assay type: functional; conditions: read-out: IC50_Mean
[6] = target: SWI/SNF-related matrix-associated actin-dependent regulator of chromatin subfamily A member 2 (Homo sapiens, UniProt P51531); assay: Luminescence-based cell-based high throughput dose response assay to identify activators of the function of SWI/SNF related, matrix associated, actin dependent regulator of chromatin, subfamily a, member 2 (SMARCA2, BRM).; assay type: functional
[7] = Counterscreen for activators of the function of SWI/SNF related, matrix associated, actin dependent regulator of chromatin, subfamily a, member 2 (SMARCA2, BRM): Luminescence-based cell-based high throughput dose response assay to identify non-selective compounds using the VP16 reporter assay.; assay type: functional
[8] = blockers of HIV-1 envelope-mediated cell-cell fusion – cherry-pick, dose response (AID 652057); assay type: functional, cell-based
[9] = viability loss in CEM21 cells – cell-based, CellTiter-Glo luminescence, cherry-picked, cytotoxicity control for viral fusion inhibitor project, dose response (AID 652042); assay type: functional;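 note: potency for signal decrease meaning cytotoxicity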
[10] = blockers of HIV-1 ZM109 envelope-driven cell-cell fusion – HeLa effector, CEM target cells, luciferase, cherry-pick, dose response (AID 652058); assay type: functional, cell-based;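 note: luciferase signal from HIV-1 Env mediated cell-cell fusion of effector and target cells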
[11] = off-target signal loss in HeLa-CEM21 co-culture – HeLa F-luc CTL cells, cherry-picked, counter-screen for HIV-1 Env fusion inhibitor project, dose response (AID 652040); assay type: functional, cell-based;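 note: potency for signal decrease marking cytotoxic or nonspecific inhibition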
[12] = HIV-1 AD8 envelope cell-cell fusion blockers – cherry-pick, dose response (AID 652062); assay type: functional, cell-based;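 note: luciferase signal from cell-cell fusion driven by HIV-1 clade B AD8 Env; potency is for inhibitors of fusion seen as a drop in luminescence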
[13] = target: T4, Apoptotic protease-activating factor 1 (Homo sapiens, UniProt O14727); assay type: functional
T4 sequence (O14727 whole entry): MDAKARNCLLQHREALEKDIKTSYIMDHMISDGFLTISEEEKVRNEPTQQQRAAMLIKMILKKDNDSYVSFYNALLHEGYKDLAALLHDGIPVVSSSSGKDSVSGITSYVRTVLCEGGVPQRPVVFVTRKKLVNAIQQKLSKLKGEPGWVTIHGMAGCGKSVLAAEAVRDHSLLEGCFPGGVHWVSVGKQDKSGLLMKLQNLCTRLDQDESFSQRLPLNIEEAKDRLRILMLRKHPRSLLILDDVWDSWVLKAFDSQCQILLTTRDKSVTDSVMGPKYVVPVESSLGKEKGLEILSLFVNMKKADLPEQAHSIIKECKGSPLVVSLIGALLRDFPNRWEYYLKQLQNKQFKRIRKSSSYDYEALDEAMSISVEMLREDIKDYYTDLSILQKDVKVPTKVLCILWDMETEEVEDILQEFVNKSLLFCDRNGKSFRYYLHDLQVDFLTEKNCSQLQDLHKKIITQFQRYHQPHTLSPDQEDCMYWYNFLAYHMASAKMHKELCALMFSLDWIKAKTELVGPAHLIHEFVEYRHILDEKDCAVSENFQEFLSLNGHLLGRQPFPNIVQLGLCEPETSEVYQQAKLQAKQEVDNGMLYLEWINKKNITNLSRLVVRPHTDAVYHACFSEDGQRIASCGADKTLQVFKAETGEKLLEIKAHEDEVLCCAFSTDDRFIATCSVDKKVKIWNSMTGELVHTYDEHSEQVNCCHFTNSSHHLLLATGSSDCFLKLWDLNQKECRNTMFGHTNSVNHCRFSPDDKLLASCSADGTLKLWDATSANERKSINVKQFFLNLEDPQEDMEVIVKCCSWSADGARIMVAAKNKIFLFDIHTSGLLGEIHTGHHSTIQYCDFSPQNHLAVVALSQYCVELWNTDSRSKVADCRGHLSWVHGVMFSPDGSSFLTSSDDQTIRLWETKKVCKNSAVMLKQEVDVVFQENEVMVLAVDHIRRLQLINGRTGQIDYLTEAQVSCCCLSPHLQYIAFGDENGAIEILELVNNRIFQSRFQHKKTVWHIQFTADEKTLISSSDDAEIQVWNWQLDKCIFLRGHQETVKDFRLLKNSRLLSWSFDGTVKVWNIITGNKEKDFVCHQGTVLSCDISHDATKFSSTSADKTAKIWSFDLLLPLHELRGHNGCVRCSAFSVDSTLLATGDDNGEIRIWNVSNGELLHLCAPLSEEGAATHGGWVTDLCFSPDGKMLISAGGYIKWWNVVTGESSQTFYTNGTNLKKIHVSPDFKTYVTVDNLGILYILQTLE

INS1 = assay: INS-1E survival protection against cytokine death – cell-based, luminescence, retest, dose response (AID 449756); assay type: functional; conditions: Rattus norvegicus;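 note: cell death triggered by IL-1 beta plus TNF-alpha plus IFN-gamma mixture; protective hits raise ATP signal compared with cytokine alone wells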
Insulin-degrading enzyme [14] = target: T5, Insulin-degrading enzyme (Homo sapiens, UniProt P14735); assay: recombinant IDE activation, cell-free – biochemical, fluorescence polarization, counter-screen for IDE activator project, dose response (AID 588681)
T5 sequence (P14735 whole entry): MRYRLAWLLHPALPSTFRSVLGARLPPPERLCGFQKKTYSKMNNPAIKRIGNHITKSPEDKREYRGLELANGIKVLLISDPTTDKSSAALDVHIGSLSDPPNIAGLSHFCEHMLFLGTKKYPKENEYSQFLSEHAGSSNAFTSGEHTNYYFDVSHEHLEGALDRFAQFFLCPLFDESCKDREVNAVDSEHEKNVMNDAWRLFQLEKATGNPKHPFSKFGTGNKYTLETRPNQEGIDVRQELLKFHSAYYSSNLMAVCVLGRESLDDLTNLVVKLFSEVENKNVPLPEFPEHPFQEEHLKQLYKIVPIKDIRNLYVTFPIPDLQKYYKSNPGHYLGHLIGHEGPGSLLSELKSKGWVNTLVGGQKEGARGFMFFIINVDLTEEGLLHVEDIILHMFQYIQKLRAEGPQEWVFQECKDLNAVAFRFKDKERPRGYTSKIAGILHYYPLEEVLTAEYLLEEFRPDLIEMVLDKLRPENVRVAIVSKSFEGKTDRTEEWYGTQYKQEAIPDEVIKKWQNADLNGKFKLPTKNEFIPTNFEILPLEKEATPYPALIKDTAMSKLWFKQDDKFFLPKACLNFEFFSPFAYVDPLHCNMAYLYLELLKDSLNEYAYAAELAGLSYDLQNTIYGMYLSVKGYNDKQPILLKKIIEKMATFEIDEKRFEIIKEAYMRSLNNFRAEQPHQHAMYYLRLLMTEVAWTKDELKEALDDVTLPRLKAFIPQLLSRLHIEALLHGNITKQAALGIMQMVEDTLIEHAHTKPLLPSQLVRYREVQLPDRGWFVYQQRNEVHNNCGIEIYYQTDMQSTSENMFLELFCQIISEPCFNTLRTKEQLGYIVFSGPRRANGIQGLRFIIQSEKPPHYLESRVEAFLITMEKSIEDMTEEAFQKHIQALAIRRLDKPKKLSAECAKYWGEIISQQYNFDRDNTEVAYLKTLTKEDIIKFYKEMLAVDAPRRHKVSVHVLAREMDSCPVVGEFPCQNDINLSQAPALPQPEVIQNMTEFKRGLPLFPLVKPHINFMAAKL

Insulin-degrading enzyme [15] = target: T5, Insulin-degrading enzyme; assay: cellular IDE activation of Abeta substrate cleavage – fluorescence polarization, HEK cells, dose response (AID 588439); assay type: functional, cell-based
HEK293 [16] = assay: membrane integrity loss in HEK cells – cell-based, fluorescence, cytotoxicity control for IDE activator project, dose response (AID 588440); assay type: functional; conditions: Homo sapiens;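 note: cytotoxicity by LDH release measuring loss of membrane integrity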
HEK293 [17] = assay: optical interference in Abeta FP readout, dose response, artefact control for IDE activator project, biochemical, fluorescence polarization (AID 588442); assay type: functional, cell-based; conditions: Homo sapiens
Melanocortin receptor 4 = Melanocortin receptor 4 (Homo sapiens, UniProt P32245); assay type: functional, cell-based;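 note: Cell-based assay with luminescence read-out, confirmatory dose-response testing for agonist activity of biased ligands at MC4R; human U2OS cells with tagged receptor and beta-arrestin; potency of agonists that increase receptor coupling to beta-arrestin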
Paired box protein Pax-8 = Paired box protein Pax-8 (Homo sapiens, UniProt Q06710); assay: PAX8 transcriptional activity inhibition in RMG-I – RMG-I cells, luciferase, cherry-pick, dose response (AID 687027); assay type: functional, cell-based;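 note: luciferase reporter driven by Pax8 target thyroperoxidase promoter measured by SteadyGlo luminescence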
[18] = OVCAR-3 cell viability loss – plate reader, dry powder samples, PAX8 inhibitor project, dose response (AID 743044); assay type: functional, cell-based
[19] = IGROV1 cell killing – plate reader, dry powder samples, PAX8 inhibitor project, dose response (AID 743043); assay type: functional, cell-based; conditions: IGROV-1
[20] = P. falciparum Dd2 growth inhibitors, dose response, SYBR Green, cherry-picked samples (AID 1159567); assay type: functional, cell-based
[21] = toxicity to human hepatoma HepG2 cells – cell-based, cherry-picked samples, cytotoxicity control, dose response (AID 1159577); assay type: functional
[22] = target: Aryl hydrocarbon receptor (Homo sapiens, UniProt P35869); conditions: Potency;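 note: confirmatory quantitative high-throughput screen measuring activation of the AhR signaling pathway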
P388/ADR = assay: cells; assay type: functional; conditions: Mus musculus
SN12K1 = assay: cells; assay type: functional; conditions: Homo sapiens
P388 = assay: cells; assay type: functional; conditions: Mus musculus

Sequence of Aryl hydrocarbon receptor (P35869 whole entry): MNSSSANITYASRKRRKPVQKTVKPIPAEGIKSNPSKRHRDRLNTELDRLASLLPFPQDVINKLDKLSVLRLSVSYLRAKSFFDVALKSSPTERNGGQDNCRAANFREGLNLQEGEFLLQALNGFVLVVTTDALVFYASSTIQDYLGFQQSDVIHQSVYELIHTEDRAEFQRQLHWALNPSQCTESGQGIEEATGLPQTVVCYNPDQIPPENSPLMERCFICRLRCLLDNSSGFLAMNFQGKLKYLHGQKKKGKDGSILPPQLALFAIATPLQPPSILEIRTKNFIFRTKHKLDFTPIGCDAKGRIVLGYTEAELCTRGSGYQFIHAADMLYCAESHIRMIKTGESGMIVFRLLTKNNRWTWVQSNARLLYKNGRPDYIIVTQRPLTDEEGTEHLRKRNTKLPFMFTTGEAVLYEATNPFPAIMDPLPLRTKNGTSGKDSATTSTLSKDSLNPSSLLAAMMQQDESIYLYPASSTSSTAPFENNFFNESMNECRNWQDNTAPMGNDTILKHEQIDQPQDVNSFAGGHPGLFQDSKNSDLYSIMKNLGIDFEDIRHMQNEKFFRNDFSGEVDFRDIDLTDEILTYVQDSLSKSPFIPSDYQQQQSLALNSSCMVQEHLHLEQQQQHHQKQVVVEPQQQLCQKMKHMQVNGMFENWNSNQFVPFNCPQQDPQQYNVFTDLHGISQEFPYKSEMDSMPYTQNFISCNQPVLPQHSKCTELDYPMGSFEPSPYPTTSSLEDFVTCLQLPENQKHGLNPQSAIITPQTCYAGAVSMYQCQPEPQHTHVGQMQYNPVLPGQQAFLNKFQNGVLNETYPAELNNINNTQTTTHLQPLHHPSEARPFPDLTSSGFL
T3 sequence (P11940 whole entry, the tested form may be a part): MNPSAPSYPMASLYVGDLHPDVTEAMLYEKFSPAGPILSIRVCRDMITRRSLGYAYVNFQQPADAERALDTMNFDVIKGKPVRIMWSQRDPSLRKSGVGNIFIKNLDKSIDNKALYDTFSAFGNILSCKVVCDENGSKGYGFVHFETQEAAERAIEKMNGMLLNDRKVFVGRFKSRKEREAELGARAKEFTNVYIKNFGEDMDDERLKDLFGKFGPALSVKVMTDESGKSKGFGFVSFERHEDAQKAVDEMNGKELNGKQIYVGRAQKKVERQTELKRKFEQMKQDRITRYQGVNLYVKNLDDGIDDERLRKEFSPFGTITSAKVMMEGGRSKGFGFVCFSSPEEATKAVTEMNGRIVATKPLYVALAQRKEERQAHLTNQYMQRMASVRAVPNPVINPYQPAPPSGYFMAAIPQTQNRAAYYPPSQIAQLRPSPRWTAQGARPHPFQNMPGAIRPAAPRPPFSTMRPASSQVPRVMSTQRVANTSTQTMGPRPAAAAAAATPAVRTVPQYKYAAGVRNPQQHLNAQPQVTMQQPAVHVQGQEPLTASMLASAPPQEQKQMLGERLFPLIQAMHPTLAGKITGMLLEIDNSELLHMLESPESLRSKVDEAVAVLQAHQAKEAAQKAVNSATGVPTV
Sequence of Melanocortin receptor 4 (P32245 whole entry): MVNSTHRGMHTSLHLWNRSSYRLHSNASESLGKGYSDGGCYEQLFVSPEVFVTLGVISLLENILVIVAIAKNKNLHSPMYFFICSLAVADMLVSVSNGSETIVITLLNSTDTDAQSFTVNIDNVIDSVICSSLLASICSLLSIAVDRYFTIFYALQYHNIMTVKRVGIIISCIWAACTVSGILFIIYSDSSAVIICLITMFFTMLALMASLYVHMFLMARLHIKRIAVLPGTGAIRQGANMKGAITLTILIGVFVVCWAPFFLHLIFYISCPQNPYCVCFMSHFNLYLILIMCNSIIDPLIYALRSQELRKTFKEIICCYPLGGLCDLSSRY
Sequence of Paired box protein Pax-8 (Q06710 whole entry): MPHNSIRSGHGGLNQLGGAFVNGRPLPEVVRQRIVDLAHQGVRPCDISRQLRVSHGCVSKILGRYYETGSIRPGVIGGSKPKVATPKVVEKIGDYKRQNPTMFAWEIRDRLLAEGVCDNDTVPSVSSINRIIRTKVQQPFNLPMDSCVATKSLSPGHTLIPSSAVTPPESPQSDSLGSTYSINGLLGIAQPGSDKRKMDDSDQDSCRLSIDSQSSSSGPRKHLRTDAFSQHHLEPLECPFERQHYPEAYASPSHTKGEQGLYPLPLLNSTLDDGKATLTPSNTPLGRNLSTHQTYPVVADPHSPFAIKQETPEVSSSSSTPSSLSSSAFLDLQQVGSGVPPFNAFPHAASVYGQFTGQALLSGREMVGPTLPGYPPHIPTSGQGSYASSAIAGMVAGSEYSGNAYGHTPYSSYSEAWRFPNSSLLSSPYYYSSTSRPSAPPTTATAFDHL
Sequence of Ras and Rab interactor 1/Tyrosine-protein kinase ABL1 (P00519 whole entry, the tested form may be a part): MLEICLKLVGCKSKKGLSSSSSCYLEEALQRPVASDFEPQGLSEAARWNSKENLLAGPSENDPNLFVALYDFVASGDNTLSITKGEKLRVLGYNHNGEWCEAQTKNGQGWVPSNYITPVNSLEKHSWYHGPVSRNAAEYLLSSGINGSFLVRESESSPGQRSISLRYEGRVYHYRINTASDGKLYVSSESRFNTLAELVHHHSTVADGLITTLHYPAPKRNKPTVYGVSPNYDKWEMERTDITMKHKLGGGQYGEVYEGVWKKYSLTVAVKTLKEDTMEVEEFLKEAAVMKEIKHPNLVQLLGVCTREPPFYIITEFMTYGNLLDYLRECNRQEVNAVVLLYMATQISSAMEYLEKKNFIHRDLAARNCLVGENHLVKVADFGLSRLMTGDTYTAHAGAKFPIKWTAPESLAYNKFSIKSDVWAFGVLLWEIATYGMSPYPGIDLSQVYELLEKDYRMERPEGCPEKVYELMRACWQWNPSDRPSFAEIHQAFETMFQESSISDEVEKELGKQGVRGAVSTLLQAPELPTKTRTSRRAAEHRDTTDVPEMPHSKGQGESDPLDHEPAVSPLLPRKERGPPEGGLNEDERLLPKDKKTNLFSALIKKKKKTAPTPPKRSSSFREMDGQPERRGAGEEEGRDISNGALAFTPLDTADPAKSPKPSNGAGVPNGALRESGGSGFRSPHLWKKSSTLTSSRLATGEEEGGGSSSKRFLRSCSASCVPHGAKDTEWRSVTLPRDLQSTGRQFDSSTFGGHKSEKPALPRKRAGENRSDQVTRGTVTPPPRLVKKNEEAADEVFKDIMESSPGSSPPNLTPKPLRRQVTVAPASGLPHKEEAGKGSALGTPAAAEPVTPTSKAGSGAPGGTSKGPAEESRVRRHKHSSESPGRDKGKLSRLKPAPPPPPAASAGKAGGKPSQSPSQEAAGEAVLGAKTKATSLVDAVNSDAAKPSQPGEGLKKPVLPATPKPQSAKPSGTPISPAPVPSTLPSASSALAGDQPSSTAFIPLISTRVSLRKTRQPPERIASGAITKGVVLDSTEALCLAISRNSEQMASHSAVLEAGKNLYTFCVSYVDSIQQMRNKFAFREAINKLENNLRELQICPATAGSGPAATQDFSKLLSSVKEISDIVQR
Sequence of Ras and Rab interactor 1/Tyrosine-protein kinase ABL1 (Q13671 whole entry, the tested form may be a part): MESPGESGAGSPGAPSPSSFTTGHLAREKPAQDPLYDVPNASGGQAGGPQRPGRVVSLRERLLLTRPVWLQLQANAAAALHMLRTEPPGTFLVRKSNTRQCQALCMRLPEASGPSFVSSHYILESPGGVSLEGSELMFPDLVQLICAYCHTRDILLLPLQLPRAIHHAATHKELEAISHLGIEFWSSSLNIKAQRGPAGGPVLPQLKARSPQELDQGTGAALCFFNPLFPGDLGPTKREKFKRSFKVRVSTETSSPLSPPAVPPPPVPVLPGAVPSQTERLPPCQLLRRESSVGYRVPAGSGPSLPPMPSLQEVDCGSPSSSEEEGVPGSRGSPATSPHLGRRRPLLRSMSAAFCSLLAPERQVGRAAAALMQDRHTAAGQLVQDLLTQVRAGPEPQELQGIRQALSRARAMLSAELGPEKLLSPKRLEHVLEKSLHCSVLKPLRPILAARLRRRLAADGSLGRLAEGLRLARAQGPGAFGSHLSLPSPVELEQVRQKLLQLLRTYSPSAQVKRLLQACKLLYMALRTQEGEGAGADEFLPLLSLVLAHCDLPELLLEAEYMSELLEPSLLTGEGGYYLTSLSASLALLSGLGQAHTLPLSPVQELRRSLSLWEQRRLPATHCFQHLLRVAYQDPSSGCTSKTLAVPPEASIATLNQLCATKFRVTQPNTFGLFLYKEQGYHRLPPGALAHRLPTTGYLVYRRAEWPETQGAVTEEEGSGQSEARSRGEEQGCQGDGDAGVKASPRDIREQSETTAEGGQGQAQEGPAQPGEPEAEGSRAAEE

- IC50 [1]: 7.8 µM (active)
SMILES: COc1cccc(CSc2nnc(CSc3nc4nc(C)cc(C)n4n3)s2)c1

SMILES: CN(C)CCCN1C(=O)c2cccc3c(Br)ccc(c23)C1=O
- EC50 [2]: 22.1 µM (active)
- EC50 [3]: 16.7 µM (active)
- IC50 [4]: > 66 µM (inactive)
- IC50 [5]: 29.3 µM (inactive)
- EC50 [6]: > 10.1 µM (inactive)
- EC50 [7]: > 91.2 µM (inactive)

SMILES: COc1cc(CNC(C)c2ccccc2)cc(Cl)c1OCC(=O)Nc1ccccc1 (centres undefined)
- AC50 [8]: 2.13 µM (active)
- AC50 [9]: 39 µM (active)
- AC50 [10]: 2.76 µM (active)
- AC50 [11]: 4.69 µM (active)
- AC50 [12]: 3.78 µM (active)

SMILES: Oc1ccc(Br)cc1CNc1cccc2cccnc12
- IC50 [13]: 34.6 µM (active)
- AC50 (INS1): 3.24 µM (active)

SMILES: Cc1ccc(N/C=C(\C#N)S(=O)(=O)c2ccccc2)cc1
- EC50 (Insulin-degrading enzyme [14]): > 54.7 µM (inactive)
- EC50 (Insulin-degrading enzyme [15]): > 54.7 µM (inactive)
- IC50 (HEK293 [16]): > 89.3 µM (inactive)
- EC50 (HEK293 [17]): > 56 µM (inactive)

SMILES: CC1=C(C(=O)OCc2ccccc2)C(c2ccc(Br)cc2)NC(=O)N1CCCCCC(=O)O (centres undefined)
- EC50 (Insulin-degrading enzyme [14]): > 54.7 µM (inactive)
- EC50 (Insulin-degrading enzyme [15]): > 54.7 µM (inactive)
- IC50 (HEK293 [16]): > 89.2 µM (inactive)
- EC50 (HEK293 [17]): > 55.9 µM (inactive)

- EC50 (Melanocortin receptor 4): > 89.2 µM (inactive)
SMILES: COc1ccc(-c2cc(NC(C)=O)c3ncc(-c4cccc(C(F)(F)F)c4)n3c2)c(OC)c1

SMILES: CCCC#Cc1ccc([C@@H]2[C@H](CO)N3CCCCN(S(=O)(=O)Cc4ccccc4)C[C@@H]23)cc1
- AC50 (Paired box protein Pax-8): 29.2 µM (active)
- AC50 [18]: 61.3 µM (active)
- AC50 [19]: 42.6 µM (active)
- AC50 [20]: 2.54 µM (active)
- AC50 [21]: 12.4 µM (active)

SMILES: C[C@@H]1CN([C@@H](C)CO)C(=O)Cc2cc(NC(=O)NC3CCCCC3)ccc2O[C@@H]1CN(C)S(=O)(=O)c1ccc(Cl)cc1
- AC50 [9]: 61.1 µM (active)

SMILES: Cc1nn(C)c(Oc2ccccc2)c1/C=N/OCc1ccc(C(=O)OC(C)(C)C)cc1 [FENPYROXYMATE]
- AC50 [22]: 44.7 µM (inconclusive)

SMILES: O=C1C=C2C(=CCOC2O)O1 (centres undefined) [PATULIN]
- GI50 (P388/ADR): 0.318 µM (active)
- GI50 (SN12K1): 0.998 µM (active)
- GI50 (P388): 0.135 µM (active)
- AC50 [22]: 12.6 µM (inconclusive)
